Assay results reported in US7455654B2, “Method and apparatus for reducing the incidence of tobacco use” (Alza Corporation, priority 2003, dated 2008).
Like-named read-outs stand apart in the source and are kept apart here.

Key:
[1] = Description: An aqueous solution containing 40 wt. % nicotine hydrogen tartrate was prepared. Sufficient fluorescein was added to the solution to generate a 0.001 M concentration. This agent was used to assess the quality of the coating after drying.
A strip of titanium foil was prepared by washing the surface with acetone and drying. Five microliters of the coating solution (or formulation) was applied and dried for four hours at room temperature.

[2] = 0.2 wt. % Tween 20
Description: A 30 wt. % nicotine HCl solution is prepared in water. To that solution is added 0.1 wt. % hydroxyethyl cellulose and 0.2 wt. % of the surfactant Tween 20. The coating solution is then applied to the microprojections using the coating methods described in U.S. Publication No. 2002/0132054.
(§1) An aqueous solution consisting of 5 wt. % nicotine base, 5 wt. % hydroxypropyl methylcellulose (HPMC, Methocel E5 premium LV EP JP, Dow Chemical Company, Midland Mich.) and 0.2 wt. % Tween 20 is prepared. The coating solution is then applied to the microprojections using the coating methods described in U.S. Publication No. 2002/0132054.

[3] = 2 cm^2 device coated with ca. 400 micrograms nicotine base; essentially immediate delivery on application to the skin
Description: as §1

[4] = 2 cm^2 device coated with ca. 300 micrograms nicotine HCl, applied in humans with applicator

CN1CCCC1c1cccnc1.O=C(O)C(O)C(O)C(=O)O (stereo not drawn) [nicotine hydrogen tartrate]
quality of the coating ([1]; aqueous 40 wt. % nicotine hydrogen tartrate with 0.001 M fluorescein, 5 microliters on titanium foil, dried four hours at room temperature, no wetting agent): very poor
quality of the coating ([1]; same coating solution with 0.1 wt. % hydroxyethyl cellulose added): noticeably improved

CN1CCC[C@H]1c1cccnc1 [nicotine base]
coating distribution across the projections ([2]; aqueous 5 wt. % nicotine base, 5 wt. % HPMC): well distributed across the projections
amount of nicotine base delivered to the user [3]: 300 micrograms

CN1CCCC1c1cccnc1.Cl (stereo not drawn) [nicotine HCl]
coating distribution across the projections ([2]; 30 wt. % nicotine HCl in water, 0.1 wt. % hydroxyethyl cellulose): well distributed across the projections
delivery of the nicotine contained on the projections [4]: more than 70%
